Key:
Acetylcholinesterase = molecular target: T1, Acetylcholinesterase (Bos taurus, UniProt P23795); assay: Binding affinity towards Acetylcholinesterase from fetal bovine serum
T1 sequence (P23795 whole entry): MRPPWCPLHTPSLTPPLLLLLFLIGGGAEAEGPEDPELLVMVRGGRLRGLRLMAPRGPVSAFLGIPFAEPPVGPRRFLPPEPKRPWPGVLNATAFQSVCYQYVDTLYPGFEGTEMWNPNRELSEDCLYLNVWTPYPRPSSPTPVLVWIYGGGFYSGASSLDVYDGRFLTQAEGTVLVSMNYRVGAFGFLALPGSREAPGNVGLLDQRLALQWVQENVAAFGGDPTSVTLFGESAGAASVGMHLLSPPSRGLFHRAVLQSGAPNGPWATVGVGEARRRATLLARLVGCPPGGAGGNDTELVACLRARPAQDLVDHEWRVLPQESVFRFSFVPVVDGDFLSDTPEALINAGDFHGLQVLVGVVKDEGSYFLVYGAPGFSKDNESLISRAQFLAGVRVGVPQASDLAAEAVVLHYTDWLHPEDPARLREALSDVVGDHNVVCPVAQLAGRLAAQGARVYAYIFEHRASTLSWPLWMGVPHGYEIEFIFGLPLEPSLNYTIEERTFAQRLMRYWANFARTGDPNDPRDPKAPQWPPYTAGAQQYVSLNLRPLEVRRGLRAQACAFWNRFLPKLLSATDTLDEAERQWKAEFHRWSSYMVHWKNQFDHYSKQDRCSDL

Rattus norvegicus = organism: Rattus norvegicus; assay: Effect of pretreatment on the survival of the rat embryonic forebrain neurons when exposed to glutamate; type: functional
[1] = Half life period was determined; type: ADME; details: rat

SMILES | Ki (Acetylcholinesterase) [nM] | Control (Rattus norvegicus) [%] | further results
C/C=C1\C2C=C(C)C[C@]1(N)c1ccc(O)nc1C2(C)C (stereo in doubt; form 4) | 7.7 | – | –
C/C=C1\C2C=C(C)C[C@]1(N)c1ccc(O)nc1C2(C)C (stereo in doubt; form 1) | 30.9 | – | –
N[C@@H](CCC(=O)O)C(=O)O [GLUTAMIC ACID] | – | 43.7 | –
C/C=C1\C2C=C(C)C[C@]1(N)c1ccc(O)nc1C2(C)C.NC(CCC(=O)O)C(=O)O (stereo in doubt; form 3) | – | 71.3 | –
C/C=C1\[C@H]2C=C(C)C[C@]1(N)c1ccc(=O)[nH]c1C2 [HUPERZINE A] | – | – | half-life [1]: 35 min
C/C=C1\C2C=C(C)C[C@]1(N)c1ccc(O)nc1C2(C)C.NC(CCC(=O)O)C(=O)O (stereo in doubt; form 2) | – | 71.7 | –

Source: ChEMBL document CHEMBL1132802, “Synthesis, chiral chromatographic separation, and biological activities of the enantiomers of 10,10-dimethylhuperzine A” (Bioorg Med Chem Lett, 2000)
